Results reported in patent US20030144352A1, “Antimuscarinic aerosol” (priority 2001, published 2003).

What was measured:
[1] = human serum; Nilvebrant et al., Life Sciences 60 (1997); cited from earlier work
[2] = Plasma concentration of tolterodine after aerosol administration (inhalation) in mice; assay type: in vivo
Experimental: Female BALB/C mice, weight range 19-22 g, were obtained from Charles River Laboratories (Kingston, N.C.). They received food and water ad libitum. All procedures in these studies were in compliance with the Animal Welfare Act Regulation, 9CFR Parts 1 and 2, Publication (NIH) 85-23, 1985.
This nebulizer generates a mean aerosol particle size of 1.3 microns at a rate of approximately 0.25 ml/minute.
Blood samples were taken via cardiac puncture under isoflurane anesthesia at 5, 15, 30, 60, 120, and 240 minutes after in treatment and at 2.5, 5, 15, 30, 60, and 120 minutes after aerosol drug treatment.
The samples were collected in tubes containing EDTA and centrifuged at 12000×g for four minutes. Plasma was removed and stored at −70° C. until assay.
Plasma samples were extracted via a liquid/liquid extraction technique. […] Chromatographically, the analyte and internal standard were resolved on a Zorbax ACE Phenyl column (2.1×50mm) using a gradient elution. The total analysis time was 4 minutes with a limit of quantization of 100 pg/mL.
Female BALB/c mice, weight range 19-22 g, were obtained from Charles River Laboratories (Kingston, N.C.). They received food and water ad libitum. All procedures in these studies were in compliance with the Animal Welfare Act Regulation, 9CFR Parts 1 and 2, Publication (NIH) 85-23, 1985.
The duration of aerosol treatment was five minutes. Blood samples were collected via cardiac puncture at 2.5, 5, 15, 30, 60, and 120 minutes following the end of the drug nebulization period.
The samples from were collected in tubes containing EDTA and centrifuged at 12000×g for four minutes. Plasma was removed and stored at −70° C. until assay.

| Structure (SMILES) | Fraction unbound [1] [%] | Rise in tolterodine plasma concentration ([2]; mice, aerosol administration (FIGS. 1 and 2)) | Absorption into the circulation ([2]; mice, inhalation of nebulized solutions at 0.1, 0.5 or 1.0 mg/mL) | Plasma levels ([2]; female BALB/c mice, inhalation of nebulized 0.1 mg/mL solution for five minutes, 2.5-120 minutes after nebulization) |
| --- | --- | --- | --- | --- |
| Cc1ccc(O)c([C@H](CCN(C(C)C)C(C)C)c2ccccc2)c1 [tolterodine, 2-[(1R)-3-(diisopropylamino)-1-phenylpropyl]-4-methylphenol] | 3.7 | within a few minutes a distinct and instant rise | rapidly absorbed into the circulation |  |
| Cc1ccc(O)c([C@H](CCN(C(C)C)C(C)C)c2ccccc2)c1.O=C(O)C(O)C(O)C(=O)O [tolterodine L-tartrate, (R)-N,N-diisopropyl-3-(2-hydroxy-5-methylphenyl)-3-phenylpropanamine L-tartrate] |  |  |  | at or below-detection limits |
| CC(C)N(CC[C@H](c1ccccc1)c1cc(CO)ccc1O)C(C)C [5-HM, 2-[(1R)-3-(diisopropylamino)-1-phenylpropyl]-4-(hydroxymethyl)phenol] | 36 |  |  |  |
